Here are results for five molecules from patent publication US5183924A, “Derivatives of benzocycloalkenyldihydroxyalkanoic acids, processes of preparation and medications containing them” (Lipha, Lyonnaise Industrielle Pharmaceutique, priority 1989, dated 1993).

Experiment [1] relates to hepatic 14C-cholesterogenesis. Put plainly: Test A: hepatic 14C-cholesterogenesis, in vivo, in the rat. The source says:
Test A: Measurement of hepatic ^14 C-cholesterogenesis, in vivo, in the rat according to the method described by Bucher et al., J Biol. Chem., 222, 1-15, 1956 and Alberts et al., Proc. Natl. Acad. Sci. USA, 77 (7), 3957-3961, 1980.

For another experiment, the target named is T1, TXA2 receptors (Cavia porcellus, UniProt A0A286Y4I8).
T1 construct: platelet-rich plasmas (PRP) are prepared by aortic punction of anaesthetized animals; endogenous in cells; host or cells: guinea pig platelets in platelet-rich plasma
T1 sequence (A0A286Y4I8 1-347): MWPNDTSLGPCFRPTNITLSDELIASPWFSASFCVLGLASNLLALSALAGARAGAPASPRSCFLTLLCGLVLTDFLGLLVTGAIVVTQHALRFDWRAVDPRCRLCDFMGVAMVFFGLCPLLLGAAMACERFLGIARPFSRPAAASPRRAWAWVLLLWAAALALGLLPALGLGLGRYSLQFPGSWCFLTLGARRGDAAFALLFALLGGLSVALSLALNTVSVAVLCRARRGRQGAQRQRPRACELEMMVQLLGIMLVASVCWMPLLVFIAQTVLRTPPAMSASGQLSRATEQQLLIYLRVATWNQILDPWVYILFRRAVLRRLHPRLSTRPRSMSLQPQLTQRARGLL
As to the kind of experiment: Test C: platelet aggregation induced by an agonist of TXA2 receptors (U 46619), in vitro, platelet-rich plasma. It is filed as cell-based. As to conditions: guinea pig platelet-rich plasma, U 46619 20 nM, 37° C. Here is the method: Test C: Measurement of platelet aggregation induced by an agonist of TXA2 receptors, in the guinea pig in the following manner: platelet-rich plasmas (PRP) are prepared by aortic punction of anaesthetized animals; the blood (9 vol.) is collected onto a 106 mM solution of trisodium citrate (1 vol.) to prevent coagulation. The PRPs are isolated by slow centrifuging (10 min, 380 g), and left to incubate for at least 3 min (37° C., with slow stirring) in an aggregometer of the Chronolog-400 type. The platelet aggregation is induced by addition of a direct agonist of the TXA2 receptors, such as, for example, the compound known by the code name U 46619 (at a concentration of 20 nM) according to Malmstein, Life Sci., 18, 169-178, 1976; the compounds of the invention are tested "in vitro".

Another experiment concerns total cholesterolaemia. Put plainly: Test B: total cholesterolaemia, in vivo, in the rat treated intravenously with triton WR 1339. To be noted: iv.

Each structure is given as a SMILES string.

For orientation: ED50 means the dose that gives a 50% effect, or the effect in half of the subjects. As a reminder, the IC50 is the concentration that inhibits the measured activity by half. As for `CCOC(=O)C[C@H](O)C[C@H](O)/C=C/C1=C(c2ccc(Cl)cc2)c2ccccc2OC12CCCC2` (relative stereo) [Compound No. 19, (+,-)Ethyl 6E-erythro-7-(4-(4-chlorophenyl)-3-spiro(2,1'-cyclopentyl-2H-1-benzopyran))-3,5-dihydroxyhept-6-enoate], it took a dose of 0.09 mg/kg to reach the 50% effect level in experiment [1] (ED50). The 50% inhibitory concentration (IC50) on TXA2 receptors turned out to be 28 µM. The same molecule gave an ED25 with total cholesterolaemia of 110 mg/kg.

Turning to `O=C(O)C[C@H](O)C[C@H](O)/C=C/C1=C(c2ccccc2)c2ccccc2SC12CCCC2` (relative stereo) [Compound No. 65, (+,-)Sodium 6E-erythro-3,5-dihydroxy-7-(4-phenyl-3-spiro(2,1'-cyclopentyl-2H-1-benzothiapyran))hept-6-enoate], it took a dose of 0.38 mg/kg to reach the 50% effect level in experiment [1] (ED50). This molecule yielded an ED25 in the experiment with total cholesterolaemia of 74 mg/kg.

For the molecule `CC[C@H](C)C(=O)O[C@H]1C[C@@H](C)C=C2C=C[C@H](C)[C@H](CC[C@@H]3C[C@@H](O)CC(=O)O3)[C@H]21` [Lovastatine, reference compound], in experiment [1], the median effective dose (ED50) stood at 0.39 mg/kg. In the experiment with total cholesterolaemia, this molecule had an ED25 of 130 mg/kg.

For the molecule `COC(=O)C[C@H](O)C[C@H](O)/C=C/C1=C(c2ccccc2)c2ccccc2CC1(C)C` (relative stereo) [Compound No. 2, (+,-)Methyl 6E-erythro-7-(1,2-dihydro-2,2-dimethyl-4-phenyl-3-naphthyl)-3,5-dihydroxyhept-6-enoate], the ED50 in experiment [1] turned out to be 0.6 mg/kg. The molecule also displayed an ED25 with total cholesterolaemia of 100 mg/kg.

In experiment [1], `CCOC(=O)C[C@H](O)C[C@H](O)/C=C/C1=C(c2ccc(F)cc2)c2ccccc2OC12CCCC2` (relative stereo) [Compound No. 1, (+,-)Ethyl 6E-erythro-7-(4-(4-fluorophenyl)-3-spiro(2,1'-cyclopentyl-2H-1-benzopyran))-3,5-dihydroxyhepten-6-oate] yielded an ED50 of 0.17 mg/kg. The same molecule had a concentration for half-maximal inhibition (IC50) on TXA2 receptors of 91 µM. For the same molecule, the ED25 in the experiment with total cholesterolaemia turned out to be 29 mg/kg.
